Consider seven molecules from US11752155B2, “Treatment of autism spectrum disorders, obsessive-compulsive disorder and anxiety disorders” (Rugen Holdings (Cayman) Limited, priority 2016, dated 2023).

Molecules are shown by their SMILES. Structures can show the parent of a compound that is named as a salt. Where two headings read alike, the source gives them in different places.

The target in one series is human NR1/NR2A (Homo sapiens (Human), UniProt Q05586+Q12879). Description: NR2A antagonist activity: calcium influx (Fluo-4) assay in HEK293 cells. The series is classed as cell-based. As for the experimental part: Activation of the NR2A or NR2B subtype of NMDA receptor with glutamate as an agonist and glycine co-agonist on these cells results in calcium influx, which can be monitored with fluorescent indicator Fluo-4.
For experiments, the cells were seeded onto poly-D-lysine-coated 96-well black plates with clear bottom (Corning) at a density of ˜50,000 cells/well. After overnight culture, the growth medium was removed from the wells and the cells were incubated at 37° C. for 60 minutes in Hanks buffer containing 4 μM fluo-4-AM (Invitrogen) and 0.1% bovine serum albumin (BSA). After dye-loading, the cells were washed three times with Hanks buffer and incubated for 10 minutes at room temperature with various concentrations of test compounds prepared in Hanks buffer with 0.1% BSA. The cell plates were placed onto an FDSS Cell fluorescence reader (Hamamatsu). After 20 seconds of reading background fluorescence, agonist glutamate at final 100 µM and co-agonist glycine at final 50 μM were added to the cells to activate the receptor, and the resulting fluorescence changes were recorded and quantified. Based on the changes in fluorescence intensity, the pharmacological effect of test compounds was analyzed and the IC50 values derived from a non-linear least squares fitting of the concentration-dependent response to a standard logistic equation using Prism (Graphpad Software, Inc.): Amplitude=Max Amplitude/(1+(IC50/[antagonist])^n).

In a further series the target is human NR1/NR2B (Homo sapiens (Human), UniProt Q05586+Q13224). Put plainly: NR2B antagonist activity: calcium influx (Fluo-4) assay in HEK293 cells. Particulars: read-out: NR2B IC50. The format is cell-based. The procedure, abridged: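 HEK293 cells expressing NR1/NR2A or NR1/NR2B, loaded with fluo-4-AM, preincubated 10 min at room temperature with compound in Hanks buffer/0.1% BSA.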

In another series the target is hERG channel (Homo sapiens (Human), UniProt Q12809). Put plainly: hERG channel inhibition, whole cell patch clamp in HEK293 cells. The format is cell-based. Particulars: for inhibition at 5 min, 10 µM: human, HEK293 cells stably expressing hERG channel, pH 7.35.
The target in a further series is CYP2D6 (Homo sapiens (Human), UniProt P10635). Put plainly: CYP P450 enzyme inhibition in pooled human liver microsomes (dextromethorphan probe). Particulars: for inhibition at 10 min, 10 µM: human, pooled human liver microsomes, pH 7.4, probe dextromethorphan, 5 μM, read-out: CYP2D6 Inhibiton at 10 μM. The format is in vitro ADME. How it is done: Test compound concentration-dependent response studies were performed in triplicate.

For series [1], the system named is wild type mice (male NMRI). Description: Marble Burying Test in wild type mice. Particulars: Mus musculus, ip, read-out: Percent Change in marbles buried relative to vehicle. The format is in vivo, mouse. The essentials: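 Male NMRI mice, 12 per group, received compound in 0.5% DMSO/4% HP-β-CD PO or IP 20 min before test. Marbles (25) buried two-thirds or more in sawdust were counted over a blind 30-min session. Groups were compared with vehicle by Kruskal-Wallis then Mann-Whitney U.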

In series [2] the test system is wild type littermate mice. Description: Grooming Test in wild type littermates of Sapap3 and Shank3 complete knockout mice. The series is classed as in vivo, mouse. How it is done: (§1) Animals. The breeding conditions and genotyping methods for Sapap3 and Shank3 complete knockout mice were the same as described in Welch et al. (Nature 2007, 448(7156):894-900) and in Wang et al. (Nat. Commun. 2016, 7:11459), respectively. Homozygous knockout mice and littermate wild type mice of both genders were used at 4 to 8 weeks of age.
(§2) Compound formulation. The test compounds were dissolved in a small volume of dimethyl sulfoxide (DMSO) and diluted in an aqueous solution of 2-hydroxypropyl-beta-cyclodextrin (HP-β-CD) and administered IP. Dosing volume was 10 mL/kg. At 20 minutes after dosing, the mice were subjected to the behavioral test as described below.
(§3) Testing room and apparatus. The test room was maintained under the same conditions as the colony rooms, except the mice were housed in conventional shoe-box cages with food, water, and nesting materials. Animals were housed in the test room 48-72 hours prior to testing, in order to permit the mice to fully acclimate to the test room and conventional housing cages before testing. Tests were conducted in white polyvinyl-fluoride hard-sided foam test arenas (20×20×12 cm). The arenas were indirectly illuminated by dimmable LED light bars placed level with the arena floor and 30 cm away from the external wall of the test arena. This permitted the internal area of the arena to be evenly illuminated at approximately 40 lux. The illumination levels where the mice were housed before testing were about 80-100 lux.
(§4) Testing procedure. Mice were carefully placed into the test arenas 20 minutes after compound administration. Animals were given free exploration of the arena for 10 minutes, after which they were gently sprayed with 4 quick pumps of a water mist (total water volume approximated 1.5-1.7 mL). Mice were then allowed an additional 10 minutes to self-groom and engage in other behaviors before being removed from the arena. All tests were videotaped using cameras mounted above the testing arena and were saved to digital media format using Noldus Media Player software (Noldus Information Technologies, Leesburg, Va.). The mice were only tested once in the acute studies and were repeatedly tested in the sustained effect studies.
(§5) Quantitation of grooming bouts. Analyses of the video recordings were conducted with TopScan behavioral recognition software (Cleversys Inc, Reston, Va.). Configurations were made which scored time spent in grooming. […] These settings permitted automated scoring of grooming by TopScan that corresponded well to manual-scoring of these behaviors by a trained blinded observer using Noldus Observer XT9 (Noldus Information Technologies), with an average corrected kappa of 0.925 (range 0.807-0.983).
(§6) Statistical analyses. Data are presented as means and standard error of the means (SEMs). Analyses were conducted using SPSS 23 (IBM SPSS Statistics, Chicago, Ill.). Time spent in grooming behavior (seconds) over the 10-minute pre- and post-spray time blocks were analyzed with repeated measures analyses of variance (RMANOVA). The pre- and post-spray times were used for the within subject effects and the genotype and compound treatment condition were used as the between subject effects. In sustained effect studies, days were also used for a within subject effect. Some analyses of total groom time were performed in Prism 7.01 (GraphPad Software, La Jolla, Calif.), with one-way ANOVAs to compare genotypes on Day 1 or with RMANOVAs to compare treatment groups within the same genotype across days. Treatments with compounds were compared independently with the vehicle. All post-hoc comparisons were performed with Bonferroni corrections for multiple comparisons to avoid a Type I error. In all cases, a p<0.05 was considered significant.
The wild type littermates of the Sapap3 knockout and Shank3 complete knockout mice were retested after Day 1 compound administration to determine whether the sustained effects were unique to the knockout mice. […]

In a further series the test system is Sapap3 knockout mice. Description: Grooming Test in Sapap3 knockout mice. The series is classed as in vivo, mouse. As for the experimental part:
as §1, §2, §3, §4, §5, §6
Next, the effect of two subunit-selective NR2B antagonists administered as a single IP dose and assessed 20 minutes postdose was studied in the Sapap3 knockout mice (n=6-10 mice per treatment group). […]

The conditions of series [3]: single subcutaneous administration, highest dose tested; cited from earlier work.
The conditions of series [4]: 18 patients, 6-19 years of age; cited from earlier work.
For series [5] the following is noted: after 8 weeks of treatment; cited from earlier work.
Where [6] appears, read: Table 1.1B, read-out: NR2A IC50.

Sequence of CYP2D6 (P10635 whole entry): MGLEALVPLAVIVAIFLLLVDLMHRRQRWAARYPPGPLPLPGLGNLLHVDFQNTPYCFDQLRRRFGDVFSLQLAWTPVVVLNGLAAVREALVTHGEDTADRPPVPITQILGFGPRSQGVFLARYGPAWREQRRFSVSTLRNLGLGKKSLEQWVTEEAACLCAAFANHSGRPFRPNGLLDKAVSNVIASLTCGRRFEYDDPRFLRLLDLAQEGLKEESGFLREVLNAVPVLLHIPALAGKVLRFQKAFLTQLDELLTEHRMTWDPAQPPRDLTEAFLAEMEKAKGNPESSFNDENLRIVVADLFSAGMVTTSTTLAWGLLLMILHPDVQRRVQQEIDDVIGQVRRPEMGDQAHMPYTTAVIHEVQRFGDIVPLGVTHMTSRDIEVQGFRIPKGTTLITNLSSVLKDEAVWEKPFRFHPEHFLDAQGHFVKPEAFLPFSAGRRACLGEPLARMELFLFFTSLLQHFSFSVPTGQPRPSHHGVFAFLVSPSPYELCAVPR
Sequence of human NR1/NR2A (Q12879 23-1464, other chains not shown): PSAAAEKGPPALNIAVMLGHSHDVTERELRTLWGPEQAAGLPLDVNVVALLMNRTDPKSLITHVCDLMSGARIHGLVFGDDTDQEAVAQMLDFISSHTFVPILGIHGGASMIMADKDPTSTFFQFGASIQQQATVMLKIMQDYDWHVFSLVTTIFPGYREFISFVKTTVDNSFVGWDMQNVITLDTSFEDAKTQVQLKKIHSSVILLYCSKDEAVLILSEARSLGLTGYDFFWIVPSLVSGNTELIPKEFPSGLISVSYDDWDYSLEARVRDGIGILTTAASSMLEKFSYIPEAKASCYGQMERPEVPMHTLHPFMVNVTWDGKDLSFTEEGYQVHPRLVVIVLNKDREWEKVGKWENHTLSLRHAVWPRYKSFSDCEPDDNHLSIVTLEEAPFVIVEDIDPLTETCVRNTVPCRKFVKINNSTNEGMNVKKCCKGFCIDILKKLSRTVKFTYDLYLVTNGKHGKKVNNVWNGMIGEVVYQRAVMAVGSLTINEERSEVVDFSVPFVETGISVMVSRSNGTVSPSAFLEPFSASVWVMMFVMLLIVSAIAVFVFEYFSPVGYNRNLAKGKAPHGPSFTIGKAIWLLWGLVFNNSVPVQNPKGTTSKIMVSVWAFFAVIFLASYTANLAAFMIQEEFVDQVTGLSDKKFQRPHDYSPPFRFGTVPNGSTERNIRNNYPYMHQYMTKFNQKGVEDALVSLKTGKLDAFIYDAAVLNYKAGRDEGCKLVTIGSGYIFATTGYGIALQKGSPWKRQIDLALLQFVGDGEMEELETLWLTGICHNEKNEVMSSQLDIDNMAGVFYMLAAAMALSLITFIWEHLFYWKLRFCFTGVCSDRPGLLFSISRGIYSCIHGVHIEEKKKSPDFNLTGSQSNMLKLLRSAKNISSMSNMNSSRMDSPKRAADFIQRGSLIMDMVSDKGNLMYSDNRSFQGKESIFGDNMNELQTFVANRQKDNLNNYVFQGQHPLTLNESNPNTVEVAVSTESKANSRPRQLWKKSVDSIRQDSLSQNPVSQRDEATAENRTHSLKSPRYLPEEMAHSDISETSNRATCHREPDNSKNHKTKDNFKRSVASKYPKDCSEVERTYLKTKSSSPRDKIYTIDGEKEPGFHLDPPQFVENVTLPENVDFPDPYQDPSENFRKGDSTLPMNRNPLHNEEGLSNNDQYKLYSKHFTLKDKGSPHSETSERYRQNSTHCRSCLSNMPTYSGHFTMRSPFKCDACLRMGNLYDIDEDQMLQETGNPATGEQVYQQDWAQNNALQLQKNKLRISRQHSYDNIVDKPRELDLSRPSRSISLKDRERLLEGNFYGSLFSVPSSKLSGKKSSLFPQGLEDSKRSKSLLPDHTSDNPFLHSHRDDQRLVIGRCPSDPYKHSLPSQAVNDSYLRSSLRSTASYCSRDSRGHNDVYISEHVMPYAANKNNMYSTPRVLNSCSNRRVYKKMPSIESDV
Sequence of hERG channel (Q12809 whole entry): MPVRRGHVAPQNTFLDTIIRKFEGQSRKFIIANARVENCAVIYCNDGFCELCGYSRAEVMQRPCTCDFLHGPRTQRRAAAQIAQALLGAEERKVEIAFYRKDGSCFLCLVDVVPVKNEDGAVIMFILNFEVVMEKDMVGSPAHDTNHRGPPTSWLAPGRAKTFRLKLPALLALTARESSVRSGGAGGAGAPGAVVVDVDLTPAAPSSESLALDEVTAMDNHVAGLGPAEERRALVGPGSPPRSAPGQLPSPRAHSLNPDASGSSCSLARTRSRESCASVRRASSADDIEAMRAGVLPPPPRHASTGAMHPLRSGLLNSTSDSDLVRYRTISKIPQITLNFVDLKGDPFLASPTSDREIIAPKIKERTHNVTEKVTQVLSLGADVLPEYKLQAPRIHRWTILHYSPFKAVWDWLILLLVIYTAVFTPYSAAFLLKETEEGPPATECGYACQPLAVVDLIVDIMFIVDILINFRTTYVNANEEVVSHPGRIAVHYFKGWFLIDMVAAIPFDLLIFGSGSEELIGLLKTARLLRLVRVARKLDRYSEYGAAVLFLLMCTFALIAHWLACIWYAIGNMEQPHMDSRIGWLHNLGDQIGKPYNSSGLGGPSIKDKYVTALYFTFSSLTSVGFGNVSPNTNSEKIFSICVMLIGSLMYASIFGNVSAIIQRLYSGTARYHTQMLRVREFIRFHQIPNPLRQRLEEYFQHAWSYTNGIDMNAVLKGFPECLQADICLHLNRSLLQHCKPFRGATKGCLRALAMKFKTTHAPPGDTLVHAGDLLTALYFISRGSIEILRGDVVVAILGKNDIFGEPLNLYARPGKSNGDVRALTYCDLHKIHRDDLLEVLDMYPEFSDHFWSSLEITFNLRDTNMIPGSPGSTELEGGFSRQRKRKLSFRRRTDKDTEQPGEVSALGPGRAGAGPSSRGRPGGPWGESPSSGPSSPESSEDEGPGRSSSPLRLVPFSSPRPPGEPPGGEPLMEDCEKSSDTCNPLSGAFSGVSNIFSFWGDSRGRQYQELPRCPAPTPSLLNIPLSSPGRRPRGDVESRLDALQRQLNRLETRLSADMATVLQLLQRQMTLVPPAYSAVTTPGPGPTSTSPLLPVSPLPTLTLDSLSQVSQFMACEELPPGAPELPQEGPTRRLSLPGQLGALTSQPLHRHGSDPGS
Sequence of human NR1/NR2B (Q13224 27-1484, other chains not shown): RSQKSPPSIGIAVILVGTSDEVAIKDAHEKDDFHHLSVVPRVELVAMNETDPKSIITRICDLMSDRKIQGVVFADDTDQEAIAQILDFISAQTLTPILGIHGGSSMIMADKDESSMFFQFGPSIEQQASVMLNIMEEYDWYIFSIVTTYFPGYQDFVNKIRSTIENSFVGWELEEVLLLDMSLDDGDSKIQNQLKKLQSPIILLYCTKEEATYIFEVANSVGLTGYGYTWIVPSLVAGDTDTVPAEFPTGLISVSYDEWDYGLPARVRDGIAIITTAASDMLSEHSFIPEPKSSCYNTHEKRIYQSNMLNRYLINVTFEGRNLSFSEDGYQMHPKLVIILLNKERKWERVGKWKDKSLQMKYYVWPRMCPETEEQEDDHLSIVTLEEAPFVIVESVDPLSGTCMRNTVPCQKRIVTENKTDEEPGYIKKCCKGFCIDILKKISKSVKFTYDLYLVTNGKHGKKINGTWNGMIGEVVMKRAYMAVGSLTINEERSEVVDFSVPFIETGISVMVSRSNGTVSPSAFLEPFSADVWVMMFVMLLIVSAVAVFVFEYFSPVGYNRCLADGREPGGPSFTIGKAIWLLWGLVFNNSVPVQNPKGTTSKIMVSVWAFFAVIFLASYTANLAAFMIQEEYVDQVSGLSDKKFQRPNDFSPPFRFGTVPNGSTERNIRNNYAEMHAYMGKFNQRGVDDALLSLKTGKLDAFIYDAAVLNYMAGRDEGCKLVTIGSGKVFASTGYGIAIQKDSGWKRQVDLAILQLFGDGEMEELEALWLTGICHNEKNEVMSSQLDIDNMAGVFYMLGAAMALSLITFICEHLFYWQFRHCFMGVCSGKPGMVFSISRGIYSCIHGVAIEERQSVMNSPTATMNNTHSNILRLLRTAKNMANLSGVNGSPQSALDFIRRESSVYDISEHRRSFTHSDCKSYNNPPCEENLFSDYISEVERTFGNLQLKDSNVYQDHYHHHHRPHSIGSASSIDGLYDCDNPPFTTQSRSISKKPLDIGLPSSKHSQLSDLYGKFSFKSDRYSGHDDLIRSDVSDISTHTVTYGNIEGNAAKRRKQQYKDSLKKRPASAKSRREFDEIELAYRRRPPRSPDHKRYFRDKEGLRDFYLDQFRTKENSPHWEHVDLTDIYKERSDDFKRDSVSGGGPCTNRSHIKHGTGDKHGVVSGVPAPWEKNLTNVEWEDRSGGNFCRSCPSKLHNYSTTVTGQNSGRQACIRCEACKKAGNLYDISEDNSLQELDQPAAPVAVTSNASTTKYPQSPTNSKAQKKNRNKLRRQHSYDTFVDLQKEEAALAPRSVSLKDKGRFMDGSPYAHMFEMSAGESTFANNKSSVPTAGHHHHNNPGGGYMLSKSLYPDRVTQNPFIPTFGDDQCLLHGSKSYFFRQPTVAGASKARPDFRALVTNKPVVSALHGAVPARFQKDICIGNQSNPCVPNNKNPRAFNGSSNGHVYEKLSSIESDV

On to `FC(F)(CN1CCC(Nc2ncnc3[nH]ccc23)CC1)c1ccccn1` [C-1^A′], for which, on human NR1/NR2A, the IC50 was above 10 µM.

With `CCc1ccc(COC(=O)N2CC[C@H](CNc3nccn4cnnc34)C(F)(F)C2)cc1` [E1-1.5^B′], the IC50 at human NR1/NR2B (Table 1.1B) was 0.0096 µM; at human NR1/NR2B (Table 1.3B), 0.0096 µM; at human NR1/NR2B (Table 1.4B), 0.0096 µM; at human NR1/NR2A (setting [6]) it was above 10 µM. Besides, the inhibition at 5 min, 10 µM against hERG channel was determined as 46%. For the same molecule, the inhibition at 10 min, 10 µM at CYP2D6 was 28%.

For the molecule `Cc1ccc(COC(=O)N2CC[C@H](CNc3ncc4cn[nH]c4n3)C(F)(F)C2)cc1` [E1-8.2^B′], on hERG channel, the inhibition at 5 min, 10 µM came to 57%. The inhibition at 10 min, 10 µM on CYP2D6 turned out to be 83%. The IC50 at human NR1/NR2A (setting [6]) was above 10 µM.

`Cc1ccc(COC(=O)N2CC[C@H](CNc3nc4ccccn4n3)C(F)(F)C2)cc1` [E1-9.2^B′]: the inhibition at 5 min, 10 µM at hERG channel came out at 38%. Besides, the inhibition at 10 min, 10 µM at CYP2D6 worked out at 14%. Further, the IC50 at human NR1/NR2A (setting [6]) is above 10 µM.

Regarding `O=C(OCc1ccc(C(F)F)cc1)N1CC[C@H](CNc2ncccn2)C(F)(F)C1` [E1-22.6^B′, (R)-4-(difluoromethyl)benzyl 3,3-difluoro-4-((pyrimidin-2-ylamino)methyl)piperidine-1-carboxylate mesylate], the change in vivo at 0.1 mg/kg in series [1] (0.1 mg/kg) was -30%. For the same molecule, the change in vivo at 0.3 mg/kg in series [1] (0.3 mg/kg) was -95%. In addition, the change in vivo at 3 mg/kg in [1] (3 mg/kg) is -98%. Besides, the change in vivo at 10 mg/kg in [1] (10 mg/kg) was -100%. The IC50 at hERG channel (Table 1.3B) turned out to be 7.3 µM; at CYP2D6 (Table 1.4B), 41 µM. Moreover, the “effect on grooming on Day 3” value is reported as “did not show an effect” in series [2] (1 mg/kg IP on Day 1, wild type littermates) and “significantly reduced grooming” in series [2] (3 mg/kg IP on Day 1, wild type littermates, mesylate). Also, in [2] (1 mg/kg IP, wild type littermates), the “effect on grooming on Day 1” value is on record as “significant reduction in grooming”. Besides, in series [2] (3 mg/kg IP on Day 1, wild type littermates), the “effect on grooming on Day 5” value was “significantly increased grooming”. The “acute effect on grooming on Day 1” value in series [2] (wild type littermates of Sapap3 knockout mice, dose-dependent) is listed as “significantly reduced grooming”. For the same molecule, the “significantly reduced grooming through Day” value in the series with Sapap3 knockout mice (first dose 3 mg/kg IP on Day 1) and with Sapap3 knockout mice (single dose 1 mg/kg IP on Day 1) was 15 days each time. Also, the “acute effect on excessive self-grooming” value in the series with Sapap3 knockout mice (single IP dose, 20 min postdose, Day 1) was “significantly reduced grooming”.

`C[C@@H](CN1CCC(Cc2ccccc2)CC1)[C@@H](O)c1ccc(O)cc1` [Ro25-6981]: in series [3], the “efficacy in the Marble Burying Test” value was “modest efficacy”.

Consider `CC12CC3CC(C)(C1)CC(N)(C3)C2` [memantine], for which the “patients who developed adverse effects” value in series [4] is listed as “seven out of 18”. In [5], the remission was 89% and the response is recorded as 100%.
